The test system of the data set is S. elongatus. Briefly: tolerance of S. elongatus to isobutyraldehyde and isobutanol (growth by OD730). In kind it is cell-based, Synechococcus elongatus PCC7942. The procedure: FIGS. 1P-1Q show S. elongatus tolerance to isobutyraldehyde and isobutanol. Effect of isobutyraldehyde (P) or isobutanol (Q) addition on growing cultures of S. elongatus as determined by optical density (OD730). At OD730 ˜1.0, isobutyraldehyde or isobutanol was added to the cultures at final concentration (mg/L) of: 0 (squares), 500 (circles), 750 (triangles), 1000 (diamonds) and 2500 (stars).
The tolerance of S. elongatus to isobutyraldehyde and isobutanol was also measured (FIG. 1P). […] In addition, the isobutyraldehyde tolerance level of S. elongatus is much higher than the concentration found in the culture medium during production. […] Thus, the in situ product removal system effectively avoids toxicity effects.
Wild-type S. elongatus and mutant strains were grown in a modified BG-11 medium with the following modifications: 50 mM NaHCO3 and 10 mg/l thiamine were added. For an experiment with 5% CO2 bubbling, 50 mM NaHCO3 was not added. Cyanobacterial cells were grown at 30° C. under fluorescent light (55 μE s^−1 m^−2), which was provided by eight 86-cm 20-W fluorescent tubes placed 15 cm from the cell culture. Cell growth was monitored by measuring OD730 of each culture.

This is an account of results in patent US9145542B2, “Method for producing aldehyde from CO2” (The Regents of the University of California, priority 2008, dated 2015).

As to `CC(C)CO` [isobutanol], where the note is “wild-type S. elongatus, the same concentration (750 mg/l) added to growing cultures, growth by OD730”, the effect on growth result is “growth retardation”.
Turning to `CC(C)C=O` [isobutyraldehyde], for the setting “S. elongatus, isobutyraldehyde compared with isobutanol”, the “relative toxicity to the cell” value is “less toxic to the cell than isobutanol”. Further, the tolerated concentration result (wild-type S. elongatus, compound added to growing cultures at OD730 ~1.0, growth by OD730) is listed as “up to 750 mg/l”.
